The term pIC50 denotes −log10 of the IC50, conventionally taken in molar units. The low end stands for a high IC50, the high end for a low IC50.

The values that follow come from US7635706B2, “5HT4-antagonistic 4-(aminomethyl)-piperidine benzamides” (Janssen Pharmaceutica NV, priority 2003, dated 2009).

pIC50: −log10 of the molar value.

This assay concerns the target T1, h5-HT4b (Homo sapiens, UniProt Q13639).
T1 construct: expressed in transfected cells; host or cells: HEK 293 (clone 9), membrane preparation
In words: 5HT4 antagonism: [3H]GR113808 binding to membranes of h5-HT4b-HEK 293 clone 9 cells. Particulars: [3H]GR113808 0.1 nM, h5-HT4b-HEK 293 membranes, 30 min at 25° C. As to the method: h5-HT4b-HEK 293 clone 9 cells were cultured in 150 mm Petri dishes and washed twice with cold PBS. The cells were then scraped from the plates and suspended in 50 mM Tris-HCl buffer, pH 7.4 and harvested by centrifugation at 23,500 rpm for 10 minutes. The pellet was resuspended in 5 mM Tris-HCl, pH 7.4 and homogenized with an Ultra Turrax homogenizer. The membranes were collected by centrifugation at 30,000 rpm for 20 min, resuspended in 50 mM Tris-HCl pH 7.4 and stored at −80° C. For the experiment, assay mixtures (0.5 ml) contained 50 μl of the tritiated ligand (5-HT4 antagonist [^3H]GR113808 0.1 nM) and 0.4 ml membrane preparation (15 μg protein/ml). 50 μl of 10% DMSO was added for total binding. 50 μl of 1 μM of (+)-trans-(1-butyl-3-hydroxy4-piperidinyl)methyl 8-amino-7-chloro-2,3-dihydro-1,4-benzodioxin-5-carboxylate (a proprietary 5HT4 agonist of Janssen Pharmaceutica) was added for determination of non-specific binding.
The [^3H]GR113808 assay buffer was 50 mM HEPES-NaOH, pH 7.4. The mixtures were incubated for 30 min at 25° C. The incubation was terminated by filtration over a Unifilter 96 GF/B presoaked in 0.1% polyethylenimine, followed by six washing steps with 50 mM HEPES-NaOH, pH 7.4.

T1 sequence (Q13639 whole entry): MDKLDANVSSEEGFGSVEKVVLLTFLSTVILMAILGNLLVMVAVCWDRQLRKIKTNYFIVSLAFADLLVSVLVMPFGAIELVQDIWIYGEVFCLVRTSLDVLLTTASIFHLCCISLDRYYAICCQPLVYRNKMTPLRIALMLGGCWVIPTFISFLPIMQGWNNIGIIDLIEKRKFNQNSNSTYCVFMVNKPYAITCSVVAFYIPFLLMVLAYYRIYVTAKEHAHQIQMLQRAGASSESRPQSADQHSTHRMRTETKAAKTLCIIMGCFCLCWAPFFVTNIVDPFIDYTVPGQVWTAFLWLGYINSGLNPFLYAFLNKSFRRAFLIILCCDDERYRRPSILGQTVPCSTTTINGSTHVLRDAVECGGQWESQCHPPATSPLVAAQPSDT

The molecule `COc1c(Cl)cc(C(=O)NC[C@@H]2CCN(CCn3ccn(C(C)C)c3=O)C[C@H]2OC)c2c1OCCO2` [compound 70] had a pIC50 of 6.58.
For the molecule `CCCCN1CC[C@@H](CNC(=O)c2cc(Cl)c(OC)c3c2OCCCO3)[C@H](OC)C1` [compound 71], the negative-log IC50 (pIC50) is 7.97. This pIC50 lies 1.39 log units higher than the previous one.
In the case of `COc1c(Cl)cc(C(=O)NC[C@@H]2CCN(CCC3OCCO3)C[C@H]2OC)c2c1OCCCO2` [compound 72], the pIC50 was 7.67.
`COc1c(Cl)cc(C(=O)NC[C@@H]2CCN(CC3CCCO3)C[C@H]2OC)c2c1OCCCO2` (stereo partly shown) [compound 73]: the pIC50 is 7.74.
Take `CNCCCN1CC[C@@H](CNC(=O)c2cc(Cl)c(Cl)c3c2OCCCO3)[C@H](OC)C1` [compound 74]: the pIC50 was 8.27.
The molecule `CO[C@@H]1CN(CCCO)CC[C@H]1CNC(=O)c1cc(Cl)c(Cl)c2c1OCCCO2` [compound 75] had a pIC50 of 8.51.
`COCCCN1CC[C@@H](CNC(=O)c2cc(Cl)c(OC)c3c2OCCO3)[C@H](OC)C1` [compound 76] gave a pIC50 of 7.66. Against the preceding molecule, the pIC50 is 0.85 log units lower.
Take `CCCCN1CC[C@@H](CNC(=O)c2cc(Cl)c(OC)c3c2OCCO3)[C@H](OC)C1` [compound 77]: the pIC50 is 8.05.
For the molecule `CNCCCN1CC[C@@H](CNC(=O)c2cc(Cl)c(OC)c3c2OCCO3)[C@H](OC)C1` [compound 78], the pIC50 was 6.76.
For `COc1c(Cl)cc(C(=O)NC[C@@H]2CCN(CCn3ccn(C(C)C)c3=O)C[C@H]2OC)c2c1OCCCO2` [compound 79], the pIC50 was 6.64.
Regarding `CNCCCN1CC[C@@H](CNC(=O)c2cc(Cl)c(Br)c3c2OCCCO3)[C@H](O)C1` [compound 80], the pIC50 was 8.20.
The molecule `CCCCN1CC[C@@H](CNC(=O)c2cc(Cl)c(Cl)c3c2OCCCO3)[C@H](OC)C1` [compound 81] gave a pIC50 of 8.68.
In turn, `CO[C@@H]1CN(CCn2ccn(C(C)C)c2=O)CC[C@H]1CNC(=O)c1cc(Cl)c(Cl)c2c1OCCCO2` [compound 82] gave a pIC50 of 8.08.
For `CNCCN1CC[C@@H](CNC(=O)c2cc(Cl)c(OC)c3c2OCCO3)[C@H](O)C1` [compound 83], the pIC50 was 7.19.
As for `CNCCN1CC[C@@H](CNC(=O)c2cc(Cl)c(Cl)c3c2OCCCO3)[C@H](OC)C1` [compound 84], the figure is 8.28; as for `CNCCCN1CC[C@@H](CNC(=O)c2cc(Cl)c(Cl)c3c2OCCCO3)[C@H](O)C1` [compound 85], 8.57.
As for `CNCCCCN1CC[C@@H](CNC(=O)c2cc(Cl)c(Cl)c3c2OCCCO3)[C@H](OC)C1` [compound 86], the figure is 9.04; as for `COc1c(Cl)cc(C(=O)NC[C@@H]2CCN(CCC3OCCO3)C[C@H]2OC)c2c1OCCO2` [compound 87], 7.51.
As for `O=C(NC[C@@H]1CCN(CCC2OCCO2)C[C@H]1O)c1cc(Cl)c(Cl)c2c1OCCCO2` [compound 88], the figure is 8.65; as for `N#CCCCN1CC[C@@H](CNC(=O)c2cc(Cl)c(Cl)c3c2OCCCO3)[C@H](O)C1` [compound 89], 8.68.
In the case of `CNCCCCN1CC[C@@H](CNC(=O)c2cc(Cl)c(Cl)c3c2OCCCO3)[C@H](O)C1` [compound 90], the pIC50 is 8.69.
For the molecule `CC(C)n1ccn(CCN2CC[C@@H](CNC(=O)c3cc(Cl)c(Br)c4c3OCCCO4)[C@H](O)C2)c1=O` [compound 91], the pIC50 was 7.87. Against the preceding molecule, the pIC50 is 0.82 log units lower.
As for `CNCCN1CC[C@@H](CNC(=O)c2cc(Cl)c(OC)c3c2OCCO3)[C@H](OC)C1` [compound 92], the figure is 6.31.
The figure for `Cc1ccc(C(=O)NC[C@@H]2CCN(CCCC#N)C[C@H]2O)c2c1OCCCO2` [compound 94] is 8.73; for `Cc1ccc(C(=O)NC[C@@H]2CCN(CC3CCCO3)C[C@H]2O)c2c1OCCCO2` (stereo partly shown) [compound 95] it is 8.99; for `Cc1ccc(C(=O)NC[C@@H]2CCN(CCCNS(C)(=O)=O)C[C@H]2O)c2c1OCCCO2` [compound 96] it is 9.01.
With `COc1ccc(C(=O)NC[C@@H]2CCNC[C@H]2O)c2c1OCCCO2` [compound 97], the pIC50 was 7.25.
In turn, `COCCCN1CC[C@@H](CNC(=O)c2ccc(OC)c3c2OCCCO3)[C@H](O)C1` [compound 98] had a pIC50 of 8.58.
With `COc1ccc(C(=O)NC[C@@H]2CCN(CCCO)C[C@H]2O)c2c1OCCCO2` [compound 99], the pIC50 is 8.14.
`CCCCN1CC[C@@H](CNC(=O)c2ccc(OC)c3c2OCCCO3)[C@H](O)C1` [compound 100] gave a pIC50 of 9.48.
As for `COc1ccc(C(=O)NC[C@@H]2CCN(CCC3OCCO3)C[C@H]2O)c2c1OCCCO2` [compound 101], the figure is 8.61; as for `CNCCCCN1CC[C@@H](CNC(=O)c2ccc(OC)c3c2OCCCO3)[C@H](O)C1` [compound 102], 8.19.
`COc1ccc(C(=O)NC[C@@H]2CCN(CC3CCCO3)C[C@H]2O)c2c1OCCCO2` (stereo partly shown) [compound 103]: the pIC50 is 8.06. The pIC50 values of the last two molecules are within 0.2 log units of each other.
With `Cc1ccc(C(=O)NC[C@@H]2CCNC[C@H]2O)c2c1OCCCO2` [compound 104], the pIC50 is 7.55.
Molecule `Cc1ccc(C(=O)NC[C@@H]2CCN(CCCOc3ccc(S(N)(=O)=O)cc3)C[C@H]2O)c2c1OCCCO2` [compound 105] gave a pIC50 of 9.22.
As to `Cc1ccc(C(=O)NC[C@@H]2CCN(CCCCOc3ccc(S(N)(=O)=O)cc3)C[C@H]2O)c2c1OCCCO2` [compound 106], the pIC50 is 9.09. The pIC50 values of the last two molecules are within 0.2 log units of each other.
In turn, `Cc1ccc(C(=O)NC[C@@H]2CCN(CCOc3ccc(S(N)(=O)=O)cc3)C[C@H]2O)c2c1OCCCO2` [compound 108] had a pIC50 of 8.75. This pIC50 is 0.34 log units lower than that of the molecule before.
The molecule `COCCCN1CC[C@@H](CNC(=O)c2ccc(OC)c3c2OCCCO3)[C@H](O)C1` [compound 110] had a pIC50 of 8.51.
`CCN1CC[C@@H](CNC(=O)c2ccc(C)c3c2OCCCO3)[C@H](O)C1` [compound 111] gave a pIC50 of 9.06.
The figure for `COc1ccc(C(=O)NC[C@@H]2CCN(CCCC#N)C[C@H]2OC)c2c1OCCCO2` [compound 112] is 7.14; for `COc1ccc(C(=O)NC[C@@H]2CCN(CCCO)C[C@H]2O)c2c1OCCCO2` [compound 113] it is 8.49.
In turn, `CCCCN1CC[C@@H](CNC(=O)c2ccc(OC)c3c2OCCO3)[C@H](O)C1` [compound 114] had a pIC50 of 8.58.
As for `COCCCN1CC[C@@H](CNC(=O)c2ccc(OC)c3c2OCCO3)[C@H](O)C1` [compound 115], the figure is 7.93.
Molecule `COc1ccc(C(=O)NC[C@@H]2CCN(CCCO)C[C@H]2O)c2c1OCCO2` [compound 116] gave a pIC50 of 8.28. Compared with the last molecule, the pIC50 is 0.35 log units higher.
On to `CNCCCCN1CC[C@@H](CNC(=O)c2ccc(OC)c3c2OCCO3)[C@H](O)C1` [compound 118], for which the pIC50 is 8.17.
The molecule `COc1ccc(C(=O)NC[C@@H]2CCN(CCCO)C[C@H]2OC)c2c1OCCO2` [compound 119] showed a pIC50 of 7.69.
In turn, `CCN1CC[C@@H](CNC(=O)c2ccc(OC)c3c2OCCCO3)[C@H](OC)C1` [compound 120] gave a pIC50 of 7.55.
Consider `COc1ccc(C(=O)NC[C@@H]2CCN(CCCCO)C[C@H]2O)c2c1OCCCO2` [compound 121], for which the pIC50 is 8.34. This pIC50 lies 0.79 log units higher than the previous one.
`COc1ccc(C(=O)NC[C@@H]2CCN(CCCCC(N)=O)C[C@H]2O)c2c1OCCCO2` [compound 122] showed a pIC50 of 8.39.
Molecule `CCCCN1CC[C@@H](CNC(=O)c2ccc(OC)c3c2OCCCO3)[C@H](OC)C1` [compound 123] gave a pIC50 of 7.96.
Consider `COCCCN1CC[C@@H](CNC(=O)c2ccc(OC)c3c2OCCCO3)[C@H](OC)C1` [compound 124], for which the pIC50 is 7.61.
`COc1ccc(C(=O)NC[C@@H]2CCN(CCCCC(N)=O)C[C@H]2O)c2c1OCCO2` [compound 125] showed a pIC50 of 8.49.
Take `COc1ccc(C(=O)NC[C@@H]2CCN(CCCS(C)(=O)=O)C[C@H]2O)c2c1OCCCO2` [compound 126]: the pIC50 was 8.10.
As for `COc1ccc(C(=O)NC[C@@H]2CCN(CCOCCO)C[C@H]2O)c2c1OCCCO2` [compound 127], the figure is 7.86; as for `COc1ccc(C(=O)NC[C@@H]2CCN(CCCC(N)=O)C[C@H]2O)c2c1OCCCO2` [compound 128], 8.14.
As to `COCCCCN1CC[C@@H](CNC(=O)c2ccc(OC)c3c2OCCCO3)[C@H](O)C1` [compound 129], the pIC50 was 8.47.
Molecule `COc1ccc(C(=O)NC[C@@H]2CCN(CCCCNc3nccnc3C)C[C@H]2O)c2c1OCCCO2` [compound 130] had a pIC50 of 8.41.
`CCCCN1CC[C@@H](CNC(=O)c2ccc(F)c3c2OCCCO3)[C@H](O)C1` [compound 131]: the pIC50 was 9.00. Compared with the last molecule, the pIC50 is 0.59 log units higher.
`COCCCN1CC[C@@H](CNC(=O)c2ccc(F)c3c2OCCCO3)[C@H](O)C1` [compound 132] had a pIC50 of 8.65.
Molecule `COc1ccc(C(=O)NCC2(O)CCN(CCCC#N)CC2)c2c1OCCCO2` [compound 133] had a pIC50 of 7.95.
Consider `COc1ccc(C(=O)NC[C@@H]2CCN(CCCNS(C)(=O)=O)C[C@H]2OC)c2c1OCCCO2` [compound 134], for which the pIC50 was 9.04. This pIC50 lies 1.09 log units higher than the previous one.
On to `COCCCCN1CCC(O)(CNC(=O)c2ccc(OC)c3c2OCCCO3)CC1` [compound 135], for which the pIC50 is 6.74.
`CCCCN1CCC(O)(CNC(=O)c2ccc(OC)c3c2OCCCO3)CC1` [compound 136] showed a pIC50 of 7.04.
The molecule `COc1ccc(C(=O)NC[C@H]2CCN(CCCC#N)C[C@H]2O)c2c1OCCCO2` [compound 137] showed a pIC50 of 6.81.
